Laboratory results reported in ChEMBL document CHEMBL1201862, “PubChem BioAssay data set” (2004).
One block for each compound: values may come before it. Calls of active or inactive are those of the source.

What was measured:
[1] = biological target: Kappa-type opioid receptor (Homo sapiens, UniProt P41145); experiment: SAR analysis of small molecule agonists of the kappa opioid receptor via a luminescent beta-arrestin assay - Set 3. [Related pubchem assays (depositor defined):AID1777, AID1785, AID1786, AID1966, AID2133, AID2136, AID2284, AID2500]; type: functional
Kappa-type opioid receptor, sequence (P41145 whole entry): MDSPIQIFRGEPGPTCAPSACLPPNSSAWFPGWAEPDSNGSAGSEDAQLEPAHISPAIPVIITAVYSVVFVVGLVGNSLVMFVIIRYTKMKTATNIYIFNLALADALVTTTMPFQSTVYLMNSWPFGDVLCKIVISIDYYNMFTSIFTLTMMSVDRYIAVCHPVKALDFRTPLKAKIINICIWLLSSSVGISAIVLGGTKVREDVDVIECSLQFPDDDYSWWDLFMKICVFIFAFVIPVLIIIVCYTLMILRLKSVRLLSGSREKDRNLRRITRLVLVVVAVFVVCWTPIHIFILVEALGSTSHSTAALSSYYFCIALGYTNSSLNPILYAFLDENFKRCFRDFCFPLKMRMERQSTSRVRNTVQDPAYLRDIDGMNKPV

[2] = biological target: Tyrosine-protein phosphatase non-receptor type 7 (Homo sapiens, UniProt P35236); experiment: HePTP (PTPN7) phosphatase inhibitor potency, SAR follow-up, biochemical, set 2 (AID 449736); type: functional
Tyrosine-protein phosphatase non-receptor type 7, sequence (P35236 whole entry): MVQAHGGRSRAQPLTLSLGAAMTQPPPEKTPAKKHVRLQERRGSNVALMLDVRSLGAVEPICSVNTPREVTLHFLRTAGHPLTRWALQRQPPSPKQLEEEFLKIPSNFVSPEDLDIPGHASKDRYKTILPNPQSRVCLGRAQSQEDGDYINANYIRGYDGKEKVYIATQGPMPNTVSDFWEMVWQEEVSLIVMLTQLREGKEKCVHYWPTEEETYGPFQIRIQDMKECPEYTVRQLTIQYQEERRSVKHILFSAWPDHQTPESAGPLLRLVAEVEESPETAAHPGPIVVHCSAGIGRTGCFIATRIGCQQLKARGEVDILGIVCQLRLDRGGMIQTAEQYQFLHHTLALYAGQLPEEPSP

Phosphomannomutase 2 = Phosphomannomutase 2 (Homo sapiens, UniProt O15305); experiment: Counter screen SAR assay for PMM2 inhibitors via a fluorescence intensity assay. [Related pubchem assays (depositor defined):AID1545, AID1574]
Phosphomannomutase 2, sequence (O15305 whole entry): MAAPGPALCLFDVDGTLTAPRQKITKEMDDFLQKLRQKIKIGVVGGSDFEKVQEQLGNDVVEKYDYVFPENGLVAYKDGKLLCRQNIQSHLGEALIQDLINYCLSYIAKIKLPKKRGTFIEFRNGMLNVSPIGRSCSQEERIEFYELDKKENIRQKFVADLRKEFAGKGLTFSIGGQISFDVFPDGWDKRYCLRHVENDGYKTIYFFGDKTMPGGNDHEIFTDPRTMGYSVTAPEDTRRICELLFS

[3] = biological target: T1, Mannose-6-phosphate isomerase (Homo sapiens, UniProt P34949); experiment: PMI enzyme inhibitors, confirmation, biochemical, fluorescence intensity (AID 1535)
T1 sequence (P34949 whole entry): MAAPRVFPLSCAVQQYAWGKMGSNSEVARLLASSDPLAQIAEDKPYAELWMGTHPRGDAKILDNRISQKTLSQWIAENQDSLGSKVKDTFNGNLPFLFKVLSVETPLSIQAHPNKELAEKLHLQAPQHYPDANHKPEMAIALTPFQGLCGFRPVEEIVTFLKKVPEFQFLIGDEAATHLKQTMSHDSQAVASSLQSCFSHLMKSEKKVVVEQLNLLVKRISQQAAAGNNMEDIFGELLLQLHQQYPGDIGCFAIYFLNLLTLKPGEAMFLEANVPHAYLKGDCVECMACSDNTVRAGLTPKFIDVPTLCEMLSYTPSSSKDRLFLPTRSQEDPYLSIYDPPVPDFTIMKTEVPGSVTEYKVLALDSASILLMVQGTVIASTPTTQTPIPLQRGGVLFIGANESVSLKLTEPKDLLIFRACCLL

[4] = biological target: Nuclear receptor ROR-alpha (Homo sapiens, UniProt P35398); experiment: ROR modulator nuclear receptor reporter panel, late-stage follow-up, ROR modulator project, cell-based, luciferase reporter, panel member RORA (AID 2117)
Nuclear receptor ROR-alpha, sequence (P35398 whole entry): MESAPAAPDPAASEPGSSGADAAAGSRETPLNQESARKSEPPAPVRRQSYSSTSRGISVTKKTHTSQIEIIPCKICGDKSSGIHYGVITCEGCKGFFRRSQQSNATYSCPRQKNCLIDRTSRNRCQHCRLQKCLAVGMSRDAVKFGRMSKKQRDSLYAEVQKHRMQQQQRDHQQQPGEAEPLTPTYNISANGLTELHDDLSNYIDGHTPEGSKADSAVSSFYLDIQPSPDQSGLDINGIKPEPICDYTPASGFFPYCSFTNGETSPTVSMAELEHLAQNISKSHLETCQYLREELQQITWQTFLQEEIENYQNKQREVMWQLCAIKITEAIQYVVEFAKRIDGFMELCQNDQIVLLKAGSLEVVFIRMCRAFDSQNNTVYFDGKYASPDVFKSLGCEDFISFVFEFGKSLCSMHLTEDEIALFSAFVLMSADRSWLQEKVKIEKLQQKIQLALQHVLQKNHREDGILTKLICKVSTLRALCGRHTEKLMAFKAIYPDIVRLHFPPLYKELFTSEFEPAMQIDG

[5] = biological target: Nuclear receptor ROR-gamma (Homo sapiens, UniProt P51449); experiment: ROR modulator nuclear receptor reporter panel, late-stage follow-up, ROR modulator project, cell-based, luciferase reporter, panel member RORG (AID 2117)
Nuclear receptor ROR-gamma, sequence (P51449 whole entry): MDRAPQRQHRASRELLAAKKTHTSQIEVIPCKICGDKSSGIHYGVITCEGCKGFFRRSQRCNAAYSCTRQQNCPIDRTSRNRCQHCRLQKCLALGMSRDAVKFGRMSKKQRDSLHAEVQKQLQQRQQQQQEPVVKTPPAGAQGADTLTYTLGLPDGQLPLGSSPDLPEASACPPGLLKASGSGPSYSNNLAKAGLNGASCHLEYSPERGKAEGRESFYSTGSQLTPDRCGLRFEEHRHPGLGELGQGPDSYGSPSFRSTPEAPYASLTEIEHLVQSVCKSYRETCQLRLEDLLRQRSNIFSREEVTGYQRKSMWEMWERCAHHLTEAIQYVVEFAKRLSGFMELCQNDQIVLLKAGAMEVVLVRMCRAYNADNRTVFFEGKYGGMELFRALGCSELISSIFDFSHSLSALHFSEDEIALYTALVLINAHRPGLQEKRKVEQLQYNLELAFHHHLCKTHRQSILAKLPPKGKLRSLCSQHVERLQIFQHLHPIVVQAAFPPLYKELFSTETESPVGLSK

[6] = biological target: Intestinal-type alkaline phosphatase (Homo sapiens, UniProt P09923); experiment: inhibition of human intestinal alkaline phosphatase – biochemical, dose response (AID 488876); type: functional
Intestinal-type alkaline phosphatase (Homo sapiens, UniProt P09923), sequence (P09923 whole entry): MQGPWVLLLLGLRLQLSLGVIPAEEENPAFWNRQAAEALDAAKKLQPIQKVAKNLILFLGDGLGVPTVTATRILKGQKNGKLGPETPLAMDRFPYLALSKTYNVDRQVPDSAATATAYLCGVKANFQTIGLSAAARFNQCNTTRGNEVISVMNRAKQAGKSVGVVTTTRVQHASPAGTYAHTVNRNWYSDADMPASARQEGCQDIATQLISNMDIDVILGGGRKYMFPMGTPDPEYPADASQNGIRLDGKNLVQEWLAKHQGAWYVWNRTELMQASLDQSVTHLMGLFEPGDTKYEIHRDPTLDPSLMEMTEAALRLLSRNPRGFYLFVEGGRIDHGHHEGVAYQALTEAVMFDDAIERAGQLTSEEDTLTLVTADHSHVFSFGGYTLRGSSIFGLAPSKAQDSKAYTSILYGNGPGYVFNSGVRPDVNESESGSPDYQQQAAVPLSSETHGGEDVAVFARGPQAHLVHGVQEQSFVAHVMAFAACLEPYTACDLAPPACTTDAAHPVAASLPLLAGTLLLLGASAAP

[7] = biological target: T2, Alkaline phosphatase, tissue-nonspecific isozyme (Homo sapiens, UniProt P05186); experiment: TNAP enzyme inhibition by screening hits, dose response, selectivity assay for mouse IAP inhibitor project, biochemical, human TNAP, uHTS hits (AID 488906); type: functional
T2 sequence (P05186 whole entry): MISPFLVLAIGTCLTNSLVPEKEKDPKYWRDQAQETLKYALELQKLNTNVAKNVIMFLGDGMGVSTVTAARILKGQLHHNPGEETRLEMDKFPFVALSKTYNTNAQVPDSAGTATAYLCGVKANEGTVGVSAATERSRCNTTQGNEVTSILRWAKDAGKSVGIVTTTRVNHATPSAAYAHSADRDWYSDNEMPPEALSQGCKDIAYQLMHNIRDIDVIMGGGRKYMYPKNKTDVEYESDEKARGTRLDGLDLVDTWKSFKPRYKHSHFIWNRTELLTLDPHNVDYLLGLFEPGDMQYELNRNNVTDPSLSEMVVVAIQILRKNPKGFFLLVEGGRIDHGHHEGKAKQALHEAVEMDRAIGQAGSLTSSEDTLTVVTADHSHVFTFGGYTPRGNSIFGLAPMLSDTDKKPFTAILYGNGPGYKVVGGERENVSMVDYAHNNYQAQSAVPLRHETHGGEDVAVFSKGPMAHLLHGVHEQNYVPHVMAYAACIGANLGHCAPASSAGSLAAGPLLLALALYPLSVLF

[8] = biological target: Intestinal-type alkaline phosphatase (Mus musculus, UniProt P24822); experiment: PubChem AID 488785; type: functional
Intestinal-type alkaline phosphatase (Mus musculus, UniProt P24822), sequence (P24822 whole entry): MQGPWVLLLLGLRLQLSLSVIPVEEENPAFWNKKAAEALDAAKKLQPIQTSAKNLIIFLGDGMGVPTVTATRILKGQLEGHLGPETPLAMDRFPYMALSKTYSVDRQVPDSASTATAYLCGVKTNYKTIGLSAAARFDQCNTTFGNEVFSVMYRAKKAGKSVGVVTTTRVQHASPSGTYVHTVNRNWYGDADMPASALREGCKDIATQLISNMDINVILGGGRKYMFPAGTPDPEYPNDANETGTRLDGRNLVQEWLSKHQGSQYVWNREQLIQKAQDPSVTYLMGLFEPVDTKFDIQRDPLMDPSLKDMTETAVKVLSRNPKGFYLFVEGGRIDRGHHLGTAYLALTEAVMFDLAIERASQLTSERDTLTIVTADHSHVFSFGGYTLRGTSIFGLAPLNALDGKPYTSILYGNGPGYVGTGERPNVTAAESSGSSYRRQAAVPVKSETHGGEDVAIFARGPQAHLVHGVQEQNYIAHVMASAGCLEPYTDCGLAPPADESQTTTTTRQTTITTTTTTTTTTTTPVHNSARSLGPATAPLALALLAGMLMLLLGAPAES

cells [9] = type: functional, cell-based; settings: HEK-CNG
SUMO-activating enzyme [10] = biological target: T3, SUMO-activating enzyme (Homo sapiens, UniProt Q9UBT2); experiment: SUMOylation inhibitor hit validation, confirmation, SUMOylation inhibitor project, biochemical, AlphaScreen (AID 2018); type: functional
T3 sequence (Q9UBE0 whole entry): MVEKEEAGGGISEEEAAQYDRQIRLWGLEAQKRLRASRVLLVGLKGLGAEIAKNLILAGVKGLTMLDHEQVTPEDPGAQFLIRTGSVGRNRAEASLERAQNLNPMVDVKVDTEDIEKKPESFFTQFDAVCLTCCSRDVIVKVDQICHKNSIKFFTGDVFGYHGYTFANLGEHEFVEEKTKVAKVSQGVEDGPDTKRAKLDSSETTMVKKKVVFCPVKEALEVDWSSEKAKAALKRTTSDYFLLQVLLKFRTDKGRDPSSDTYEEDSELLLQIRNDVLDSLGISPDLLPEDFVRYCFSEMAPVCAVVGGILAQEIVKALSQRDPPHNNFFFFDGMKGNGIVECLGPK
T3 sequence (Q9UBT2 whole entry): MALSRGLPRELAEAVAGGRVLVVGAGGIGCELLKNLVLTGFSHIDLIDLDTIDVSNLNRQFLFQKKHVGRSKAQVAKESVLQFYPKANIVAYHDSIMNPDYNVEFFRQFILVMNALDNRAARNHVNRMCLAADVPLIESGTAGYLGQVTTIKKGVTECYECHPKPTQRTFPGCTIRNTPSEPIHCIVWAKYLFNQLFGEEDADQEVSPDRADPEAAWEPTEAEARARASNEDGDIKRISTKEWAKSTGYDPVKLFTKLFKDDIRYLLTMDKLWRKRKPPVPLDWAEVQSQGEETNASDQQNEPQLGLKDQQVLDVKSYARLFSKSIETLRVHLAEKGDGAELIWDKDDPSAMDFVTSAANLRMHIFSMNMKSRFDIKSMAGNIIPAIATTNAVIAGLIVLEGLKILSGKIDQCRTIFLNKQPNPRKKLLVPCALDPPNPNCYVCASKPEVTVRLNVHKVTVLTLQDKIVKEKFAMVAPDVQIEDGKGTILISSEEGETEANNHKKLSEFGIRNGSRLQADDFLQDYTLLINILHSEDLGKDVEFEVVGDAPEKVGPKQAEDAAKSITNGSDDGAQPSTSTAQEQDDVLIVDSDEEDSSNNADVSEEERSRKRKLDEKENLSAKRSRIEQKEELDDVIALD

Albumin = Albumin (Bos taurus, UniProt P02769); experiment: Counterscreen for inhibitors of T-cell receptor (TCR)-CD3 interaction: Fluorescence-based biochemical high throughput dose response assay to identify inhibitors of T-cell receptor (TCR)-CD3 interaction using a TAMRA-labeled BSA probe.; type: functional
Albumin, sequence (P02769 whole entry): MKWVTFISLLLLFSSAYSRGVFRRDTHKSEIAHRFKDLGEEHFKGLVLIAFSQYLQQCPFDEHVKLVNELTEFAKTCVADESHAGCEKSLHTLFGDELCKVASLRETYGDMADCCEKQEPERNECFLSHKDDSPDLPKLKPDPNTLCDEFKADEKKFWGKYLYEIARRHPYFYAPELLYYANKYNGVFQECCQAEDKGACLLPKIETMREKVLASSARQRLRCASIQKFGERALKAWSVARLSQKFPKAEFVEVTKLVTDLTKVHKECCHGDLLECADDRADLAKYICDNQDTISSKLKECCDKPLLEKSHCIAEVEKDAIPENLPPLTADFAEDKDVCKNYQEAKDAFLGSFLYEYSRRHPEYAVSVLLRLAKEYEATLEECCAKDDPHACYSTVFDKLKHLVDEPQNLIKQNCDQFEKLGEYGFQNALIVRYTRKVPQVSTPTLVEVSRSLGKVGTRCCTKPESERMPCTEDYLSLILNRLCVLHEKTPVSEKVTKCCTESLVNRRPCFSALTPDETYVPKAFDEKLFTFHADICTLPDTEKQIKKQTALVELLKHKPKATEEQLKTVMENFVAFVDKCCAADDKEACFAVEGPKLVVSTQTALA

cells [11] = type: functional, cell-based
Galanin receptor type 3 = Galanin receptor type 3 (Homo sapiens, UniProt O60755); experiment: Fluorescence-based cell-based primary high throughput dose response assay to identify antagonists of the Galanin Receptor 3 (GalR3).; type: functional
SUMO-activating enzyme [12] = biological target: T3, SUMO-activating enzyme; experiment: inhibitors of in vitro SUMOylation cascade, primary screen, biochemical, HTRF, uHTS (AID 2006); type: protein-complex assay
cells [13] = type: functional, cell-based; remark: listed apart in the source

EC50 [1]: > 20 µM (inactive)
SMILES: COc1ccc(Cn2c(SCc3ccccc3)nnc2-c2ccccn2)cc1

SMILES: NS(=O)(=O)c1ccc(NC(=S)Nc2ccc3c(c2)CCC3)cc1
IC50 [2]: 7.93 µM (active)

IC50 (Phosphomannomutase 2): > 100 µM (inactive) | IC50 [3]: 9.43 µM (active)
SMILES: Nc1ccccc1/N=c1\ssnc1Cl

IC50 [4]: 2.31 µM (active) | IC50 [5]: 7.23 µM (active)
SMILES: COc1cccc(S(=O)(=O)Nc2ccc(C(O)(C(F)(F)F)C(F)(F)F)cc2)c1

IC50 [6]: 1.74 µM (active) | IC50 [7]: > 100 µM (inactive) | IC50 [8]: 3.68 µM (active)
SMILES: COC(=O)C/C=N/NC1=NC(=O)/C(=C/C(=O)O)S1

SMILES: C/C(=N\OCc1nc2ccccc2c(=O)n1/N=C/c1cc(C)cc([N+](=O)[O-])c1O)c1ccccc1
EC50 (cells [9]): > 29.9 µM (inactive) | IC50 (SUMO-activating enzyme [10]): 1.2 µM (active) | IC50 (Albumin): > 94.1 µM (inactive) | EC50 (cells [11]): > 350 µM (not active) | IC50 (Galanin receptor type 3): 3.39 µM (active) | IC50 (SUMO-activating enzyme [12]): 8.77 µM (active) | EC50 (cells [13]): 78 µM (active)
